Measured values as given in patent publication US10206398B2, “Five-membered C-N-attached aryl sulphide and aryl sulphoxide derivatives as pesticides” (BAYER CROPSCIENCE AKTIENGESELLSCHAFT, priority 2014, dated 2019).
Like-named read-outs stand apart in the source and are kept apart here.

Assays:
Tetranychus urticae = Tetranychus urticae - spray test, OP-resistant (bean leaf discs, 6 days); type: in vivo; settings: 500 g/ha, after 6 days; for pest or weed control at 500 g/ha: Tetranychus urticae, foliar, 144 h, read-out: efficacy (spider mites killed)
Method: 5. Tetranychus urticae—Spray Test, OP-Resistant
Solvent: 78.0 parts by weight of acetone
• 1.5 parts by weight of dimethylformamide Emulsifier: alkylaryl polyglycol ether
To produce a suitable preparation of active compound, 1 part by weight of active compound is dissolved using the stated parts by weight of solvent and made up with water containing an emulsifier concentration of 1000 ppm until the desired concentration is attained. To produce further test concentrations, the preparation is diluted with emulsifier-containing water.
Discs of bean leaves (Phaseolus vulgaris) infested with all stages of the greenhouse red spider mite (Tetranychus urticae) are sprayed with an active compound preparation of the desired concentration.
After 6 days, the efficacy in % is determined. 100% means that all the spider mites have been killed; 0% means that no spider mites have been killed.

[1] = log P determination by HPLC on reversed-phase columns (C 18), analogous to OECD Guideline 117; type: physicochemical; settings: for logP[a]: method [a]; for logP[b]: method [b]; for chromatographic logP: reversed-phase HPLC column (C 18)
Method: The log P values were determined analogously to OECD Guideline 117 (EC Directive 92/69/EEC) by HPLC (high-performance liquid chromatography) using reversed-phase columns (C 18), by the following methods: [a] The LC-MS determination in the acidic range was effected at pH 2.7 with 0.1% aqueous formic acid and acetonitrile (contains 0.1% formic acid) as eluents; linear gradient from 10% acetonitrile to 95% acetonitrile. log P[a] is also referred to as log P(HCOOH). [b] LC-MS determination in the neutral range was effected at pH 7.8 with 0.001 molar aqueous ammonium hydrogencarbonate solution and acetonitrile as eluents; linear gradient from 10% acetonitrile to 95% acetonitrile. log P[b] is also referred to as log P(neutral). Calibration is effected with solutions of a homologous series of unbranched alkan-2-ones (having 3 to 16 carbon atoms) with known log P values (log P values determined on the basis of the retention times by linear interpolation between two successive alkanones).

[2] = pH 2.7, HPLC, acidic range, pH 2.7, 0.1% aqueous formic acid and acetonitrile, read-out: log P(HCOOH)
[3] = pH 2.7, method [a], read-out: logP[a]
[4] = pH 7.8, HPLC, neutral range, pH 7.8, 0.001 molar aqueous ammonium hydrogencarbonate and acetonitrile, read-out: log P(neutral)
[5] = pH 7.8, method [b], read-out: logP[b]
[6] = pH 2.7, Table 3, HPLC, acidic range, pH 2.7, read-out: logP[a]
[7] = pH 7.8, Table 3, HPLC, neutral range, pH 7.8, read-out: logP[b]

Compound	efficacy (spider mites killed) (Tetranychus urticae) [%]	logP[a] [1]	logP[b] [1]	pest or weed control at 500 g/ha (Tetranychus urticae) [%]	chromatographic logP [1, 2]	chromatographic logP [1, 3]	chromatographic logP [1, 4]	chromatographic logP [1, 5]	chromatographic logP [1, 6]	chromatographic logP [1, 7]
O=C(NC1CC1)N1CC(=O)N(c2cc([S+]([O-])CC(F)(F)F)c(Cl)cc2Cl)C1=O (racemic) [compound 112]	100	2.61	2.65	–	–	–	–	–	–	–
CC(C)CNC(=O)N1CC(=O)N(c2cc([S+]([O-])CC(F)(F)F)c(Cl)cc2Cl)C1=O (racemic) [compound 113]	100	3.21	3.28	–	–	–	–	–	–	–
O=C(NCC(F)(F)F)N1CC(=O)N(c2cc([S+]([O-])CC(F)(F)F)c(Cl)cc2Cl)C1=O (racemic) [compound 114]	100	2.88	2.91	–	–	–	–	–	–	–
O=C(NCc1ccccc1)N1CC(=O)N(c2cc([S+]([O-])CC(F)(F)F)c(Cl)cc2Cl)C1=O (racemic) [compound 115]	100	3.23	3.29	–	–	–	–	–	–	–
O=C(Nc1ccc(F)cc1)N1CC(=O)N(c2cc([S+]([O-])CC(F)(F)F)c(Cl)cc2Cl)C1=O (racemic) [compound 116]	100	3.39	3.46	–	–	–	–	–	–	–
O=C(Nc1cccc(Cl)c1)N1CC(=O)N(c2cc([S+]([O-])CC(F)(F)F)c(Cl)cc2Cl)C1=O (racemic) [compound 117]	100	3.81	3.89	–	–	–	–	–	–	–
O=C(Nc1cccc(C(F)(F)F)c1)N1CC(=O)N(c2cc([S+]([O-])CC(F)(F)F)c(Cl)cc2Cl)C1=O (racemic) [compound 120]	100	3.92	4.02	–	–	–	–	–	–	–
Cc1cc(F)c(N2C(=O)CN(C(=O)NC3CC3)C2=O)cc1[S+]([O-])CC(F)(F)F (stereo not drawn) [Ex. No. 3, N-Cyclopropyl-3-[2-fluoro-4-methyl-5-(2,2,2-trifluoroethylsulphinyl)phenyl]-2,4-dioxoimidazolidine-1-carboxamide]	–	–	–	100	2.15	2.15	2.12	2.12	–	–
Cc1cc(F)c(N2C(=O)CN(C(=O)NC3CC3)C2=S)cc1[S+]([O-])CC(F)(F)F (stereo not drawn) [Ex. No. 4, N-Cyclopropyl-3-[2-fluoro-4-methyl-5-(2,2,2-trifluoroethylsulphinyl)phenyl]-4-oxo-2-thioxoimidazolidine-1-carboxamide]	–	–	–	100	2.64	2.64	2.65	2.65	–	–
Cc1cc(F)c(N2C(=O)CN(C(=O)NCC(C)C)C2=O)cc1SCC(F)(F)F [Ex. No. 12, 3-[2-Fluoro-4-methyl-5-(2,2,2-trifluoroethylsulphanyl)phenyl]-N-isobutyl-2,4-dioxoimidazolidine-1-carboxamide]	–	–	–	100	3.67	3.67	3.58	3.58	–	–
Cc1cc(F)c(N2C(=O)CN(C(=O)NCC(C)C)C2=S)cc1[S+]([O-])CC(F)(F)F (stereo not drawn) [Ex. No. 13]	90	3.33	3.24	–	–	–	–	–	–	–
CCNC(=O)N1C(=O)N(c2cc(SCC(F)(F)F)c(C)cc2F)C(=O)C1C (stereo not drawn) [Ex. No. 24, N-Ethyl-3-[2-fluoro-4-methyl-5-(2,2,2-trifluoroethylsulphanyl)phenyl]-5-methyl-2,4-dioxoimidazolidine-1-carboxamide]	–	–	–	100	3.38	3.38	3.3	3.3	–	–
Cc1cc(F)c(N2C(=O)N(C(=O)NC3CC3)C(C)(C)C2=O)cc1SCC(F)(F)F [Ex. No. 74, N-Cyclopropyl-3-[2-fluoro-4-methyl-5-(2,2,2-trifluoroethylsulphanyl)phenyl]-5,5-dimethyl-2,4-dioxoimidazolidine-1-carboxamide]	–	–	–	100	3.76	3.76	3.72	3.72	–	–
Cc1cc(F)c(N2C(=O)N(C(=O)NC3CC3)C(C)(C)C2=O)cc1[S+]([O-])CC(F)(F)F (stereo not drawn) [Ex. No. 84, N-Cyclopropyl-3-[2-fluoro-4-methyl-5-(2,2,2-trifluoroethylsulphinyl)phenyl]-5,5-dimethyl-2,4-dioxoimidazolidine-1-carboxamide]	–	–	–	100	2.73	2.73	2.73	2.73	–	–
Cc1cc(F)c(N2C(=O)CNC2=O)cc1SCC(F)(F)F [IIa-1]	–	–	–	90	2.11	–	2.08	–	2.11	2.08
Cc1cc(F)c(N2C(=O)CNC2=S)cc1SCC(F)(F)F [IIa-2, 3-[2-Fluoro-4-methyl-5-(2,2,2-trifluoroethylsulphanyl)phenyl]-2-thioxoimidazolidin-4-one]	–	–	–	100	2.53	–	2.5	–	2.53	2.5
Cc1cc(F)c(N2C(=O)CNC2=O)cc1[S+]([O-])CC(F)(F)F (stereo not drawn) [IIb-1]	–	–	–	100	1.33	–	1.31	–	1.33	1.31
Cc1cc(F)c(N2C(=O)CN(C(=O)NC(C)C)C2=S)cc1[S+]([O-])CC(F)(F)F (stereo not drawn) [compound 14]	100	3.01	2.93	–	–	–	–	–	–	–
Cc1cc(F)c(N2C(=O)CN(C(=O)Nc3ccccc3)C2=O)cc1SCC(F)(F)F [compound 16]	100	3.82	3.71	–	–	–	–	–	–	–
Cc1cc(F)c(N2C(=O)CN(C(=O)NCc3ccccc3)C2=O)cc1SCC(F)(F)F [compound 18]	90	3.64	3.53	–	–	–	–	–	–	–
Cc1cc(F)c(N2C(=O)CN(C(=O)Nc3ccccc3)C2=O)cc1[S+]([O-])CC(F)(F)F (stereo not drawn) [compound 19]	90	2.89	2.83	–	–	–	–	–	–	–
Cc1cc(C)c(N2C(=O)CN(C(=O)NC(C)C)C2=O)cc1SCC(F)(F)F [compound 22]	100	3.48	3.38	–	–	–	–	–	–	–
Cc1cc(F)c(N2C(=O)C(C)N(C(=O)NC3CC3)C2=O)cc1SCC(F)(F)F (stereo not drawn) [compound 25]	100	3.43	3.35	–	–	–	–	–	–	–
Cc1cc(F)c(N2C(=O)C(C)N(C(=O)NC(C)C)C2=O)cc1SCC(F)(F)F (stereo not drawn) [compound 26]	100	3.78	3.68	–	–	–	–	–	–	–
CCNC(=O)N1CC(=O)N(c2cc(SCC(F)(F)F)c(C)cc2C)C1=O [compound 31]	90	3.14	3.04	–	–	–	–	–	–	–
CCNC(=O)N1CC(=O)N(c2cc([S+]([O-])CC(F)(F)F)c(C)cc2C)C1=O (stereo not drawn) [compound 32]	100	2.14	2.12	–	–	–	–	–	–	–
